Experiments:
[1] = system: HCT-116 cells (colon cancer); experiment: MTT cell viability assay, 72 h, HCT-116; type: cell-based, human; conditions: MTT assay, 72 h incubation, mean ± SD
Procedure: (§1) Compounds 7–36 and 47–54 were tested regarding their effect on growth of three human cancer cell lines: colon cancer HCT-116, breast cancer MCF-7 and cervical cancer HeLa, as well as on noncancerous keratinocyte cell line HaCaT. Cell viability was measured with MTT assay after 72 h of incubation with tested compound in five concentration 1–100 μM. The MTT test enables us to quantify the living cells by measuring the activity of mitochondrial enzymes, enables reducing tetrazolium dye MTT to purple formazan. In this manner, IC50—molar concentration [µM] that inhibits 50% net cell growth—was determined (Table 1 and Table 2).
(§2) All chemicals, if not stated otherwise, were obtained from Sigma-Aldrich (St. Louis, MO, USA). The MCF-7, HeLa and HaCaT cell lines were purchased from Cell Lines Services (Eppelheim, Germany), the HCT-116 cell line were obtained from ATCC (ATCC-No: CCL-247). Cells were cultured in Dulbecco’s modified Eagle’s medium (DMEM) supplemented with 10% fetal bovine serum, 2 mM glutamine, 100 units/mL penicillin, and 100 μg/mL streptomycin. Cultures were maintained in a humidified atmosphere with 5% CO2 at 37 °C in an incubator (HeraCell, Heraeus, Langenselbold, Germany). Cell viability was determined using the MTT [3-(4,5-dimethylthiazol-2-yl)-2,5-diphenyl-tetrazolium bromide] assay. Stock solutions of the studied compounds were obtained in 100% DMSO. […] Cells were seeded in 96-well plates at a density of 5 × 10^3 cells/well and treated for 72 h with the examined compounds in the concentration range 1–100 μM (1, 10, 25, 50 and 100 μM). Following treatment, MTT (0.5 mg/mL) was added to the medium and cells were further incubated for 2 h at 37 °C. Cells were lysed with DMSO and the absorbance of the formazan solution was measured at 550 nm with a plate reader Victor 1420 multilabel counter, (PerkinElmer, Inc. Waltham, MA USA). […] The experiment was performed in triplicate. Values are expressed as the mean ± SD of at least three independent experiments

[2] = system: MCF-7 cells (breast cancer); experiment: MTT cell viability assay, 72 h, MCF-7; type: cell-based, human; conditions: MTT assay, 72 h incubation, mean ± SD
Procedure: as §1, §2

[3] = system: HeLa cells (cervical cancer); experiment: MTT cell viability assay, 72 h, HeLa; type: cell-based, human; conditions: MTT assay, 72 h incubation, mean ± SD
Procedure: as §1, §2

[4] = system: HaCaT noncancerous keratinocyte cell line; experiment: MTT cell viability assay, 72 h, HaCaT; type: cell-based; conditions: for IC50: Homo sapiens, HaCaT, MTT assay, 72 h incubation, mean ± SD; for activity against HaCaT compared with cancer lines: in words
Procedure: as §1, §2

SMILES | IC50 ([1]; Homo sapiens, HCT-116, 72 h) | IC50 ([2]; Homo sapiens, MCF7, 72 h) | IC50 ([3]; Homo sapiens, HeLa, 72 h) | IC50 [4] | activity against HaCaT compared with cancer lines [4] | IC50 [1] | IC50 [2] | IC50 [3]
NS(=O)(=O)c1ccc(-c2nnc(/C=C/c3ccccc3)o2)cc1 [Compound 47, (E)-4-(5-Styryl-1,3,4-oxadiazol-2-yl)benzenesulfonamide] | 185 ± 11 µM | 168 ± 8 µM | 130 ± 7 µM |  |  |  |  | 
NS(=O)(=O)c1cc(-c2nnc(/C=C/c3ccncc3)o2)c(Cl)cc1Cl [Compound 23, (E)-2,4-Dichloro-5-(5-(2-(pyridin-4-yl)vinyl)-1,3,4-oxadiazol-2-yl)benzenesulfonamide] | 255 ± 13 µM | 640 ± 13 µM | 740 ± 37 µM |  |  |  |  | 
NS(=O)(=O)c1cc(-c2nnc(/C=C/c3ccc(O)cc3)o2)c(Cl)cc1SCc1ccccc1 [Compound 18, (E)-2-(Benzylthio)-4-chloro-5-(5-(4-hydroxystyryl)-1,3,4-oxadiazol-2-yl)benzenesulfonamide] | 18 ± 1 µM | 59 ± 3 µM | 18.2 ± 0.5 µM | 25.6 ± 0.5 µM | at the same level as against cancer lines |  |  | 
NS(=O)(=O)c1cc(-c2nnc(/C=C/c3ccc(Br)cc3)o2)c(Cl)cc1Cl [Compound 15, (E)-5-(5-(4-Bromostyryl)-1,3,4-oxadiazol-2-yl)-2,4-dichlorobenzenesulfonamide] | 34 ± 1 µM | 41 ± 1 µM | 34 ± 2 µM | 55 ± 2 µM |  |  |  | 
NS(=O)(=O)c1cc(-c2nnc(/C=C/c3cccnc3)o2)c(Cl)cc1SCc1ccccc1 [Compound 26, (E)-2-(Benzylthio)-4-chloro-5-(5-(2-(pyridin-3-yl)vinyl)-1,3,4-oxadiazol-2-yl)benzenesulfonamide] | 85 ± 5 µM | 350 ± 17 µM | 135 ± 4 µM |  |  |  |  | 
FC(F)(F)c1ccc(/C=C/c2nnc(-c3ccc(Cl)cc3Cl)o2)cc1 [Compound 54, (E)-2-(2,4-Dichlorophenyl)-5-(4-(trifluoromethyl)styryl)-1,3,4-oxadiazole] | 98 ± 1 µM | 102 ± 5 µM | 104 ± 3 µM |  |  |  |  | 
NS(=O)(=O)c1ccc(-c2nnc(/C=C/c3ccc(Cl)cc3)o2)cc1 [Compound 48, (E)-4-(5-(4-chlorostyryl)-1,3,4-oxadiazol-2-yl)benzenesulfonamide] | 105 ± 5 µM | 76 ± 4 µM | 25 ± 3 µM | 95 ± 4 µM |  |  |  | 
Clc1ccc(/C=C/c2nnc(-c3ccc(Cl)cc3Cl)o2)cc1 [Compound 52, (E)-2-(4-Chlorostyryl)-5-(2,4-dichlorophenyl)-1,3,4-oxadiazole] | 64 ± 3 µM | 110 ± 6 µM | 215 ± 6 µM |  |  |  |  | 
NS(=O)(=O)c1cc(-c2nnc(/C=C/c3c(Cl)cccc3Cl)o2)c(Cl)cc1Cl [Compound 13, (E)-2,4-Dichloro-5-(5-(2,6-dichlorostyryl)-1,3,4-oxadiazol-2-yl)benzenesulfonamide] | 16 ± 1 µM | 92 ± 5 µM | 25 ± 1 µM | 95 ± 2 µM |  |  |  | 
NS(=O)(=O)c1cc(-c2nnc(/C=C/c3ccc(C(F)(F)F)cc3)o2)c(Cl)cc1Cl [Compound 21, (E)-2,4-Dichloro-5-(5-(4-(trifluoromethyl)styryl)-1,3,4-oxadiazol-2-yl)benzenesulfonamide] | 18 ± 1 µM | 75 ± 2 µM | 90 ± 2 µM | 95 ± 4 µM |  |  |  | 
NS(=O)(=O)c1cc(-c2nnc(/C=C/c3ccc[nH]3)o2)c(Cl)cc1Cl [Compound 36, (E)-5-(5-(2-(1H-Pyrrol-2-yl)vinyl)-1,3,4-oxadiazol-2-yl)-2,4-dichlorobenzenesulfonamide] | 39 ± 1 µM | 40 ± 1 µM | 73 ± 3 µM | 98 ± 4 µM |  |  |  | 
N#Cc1ccc(/C=C/c2nnc(-c3ccc(Cl)cc3Cl)o2)cc1 [Compound 53, (E)-4-(2-(5-(2,4-Dichlorophenyl)-1,3,4-oxadiazol-2-yl)vinyl)benzonitrile] | 106 ± 3 µM | 142 ± 6 µM | 225 ± 11 µM |  |  |  |  | 
Clc1ccc(-c2nnc(/C=C/c3ccccc3)o2)c(Cl)c1 [Compound 51, (E)-2-(2,4-Dichlorophenyl)-5-styryl-1,3,4-oxadiazole] | 92 ± 2 µM | 125 ± 6 µM | 190 ± 10 µM |  |  |  |  | 
NS(=O)(=O)c1cc(-c2nnc(/C=C/c3ccco3)o2)c(Cl)cc1Cl [Compound 33, (E)-2,4-Dichloro-5-(5-(2-(furan-2-yl)vinyl)-1,3,4-oxadiazol-2-yl)benzenesulfonamide] | 33 ± 1 µM | 170 ± 9 µM | 210 ± 8 µM | 200 ± 12 µM |  |  |  | 
NS(=O)(=O)c1cc(-c2nnc(/C=C/c3ccc(C(F)(F)F)cc3)o2)c(Cl)cc1SCc1ccccc1 [Compound 22, (E)-2-(Benzylthio)-4-chloro-5-(5-(4-(trifluoromethyl)styryl)-1,3,4-oxadiazol-2-yl)benzenesulfonamide] | 15.2 ± 0.1 µM | 30 ± 1 µM | 33.4 ± 0.5 µM | 33 ± 1 µM |  |  |  | 
N#Cc1ccc(/C=C/c2nnc(-c3cc(S(N)(=O)=O)c(Cl)cc3Cl)o2)cc1 [Compound 19, (E)-2,4-Dichloro-5-(5-(4-cyanostyryl)-1,3,4-oxadiazol-2-yl)benzenesulfonamide] | 13.7 ± 0.5 µM | 10 ± 0.3 µM | 117 ± 6 µM | 102 ± 3 µM |  |  |  | 
N#Cc1ccc(/C=C/c2nnc(-c3ccc(S(N)(=O)=O)cc3)o2)cc1 [Compound 49, (E)-4-(5-(4-Cyanostyryl)-1,3,4-oxadiazol-2-yl)benzenesulfonamide] | 32 ± 2 µM | 75 ± 4 µM | 99 ± 3 µM | 98 ± 4 µM |  |  |  | 
NS(=O)(=O)c1cc(-c2nnc(/C=C/c3ccc([N+](=O)[O-])s3)o2)c(Cl)cc1SCc1ccccc1 [Compound 32, (E)-2-(Benzylthio)-4-chloro-5-(5-(2-(5-nitrothiophen-2-yl)vinyl)-1,3,4-oxadiazol-2-yl)benzenesulfonamide] | 17 ± 1 µM | 55 ± 3 µM | 58 ± 2 µM | 57 ± 1 µM |  |  |  | 
NS(=O)(=O)c1cc(-c2nnc(/C=C/c3ccccn3)o2)c(Cl)cc1Cl [Compound 27, (E)-2,4-Dichloro-5-(5-(2-(pyridin-2-yl)vinyl)-1,3,4-oxadiazol-2-yl)benzenesulfonamide] | 117 ± 4 µM | 110 ± 2 µM | 170 ± 5 µM |  |  |  |  | 
NS(=O)(=O)c1cc(-c2nnc(/C=C/c3ccc(Cl)cc3)o2)c(Cl)cc1Cl [Compound 11, (E)-2,4-Dichloro-5-(5-(4-chlorostyryl)-1,3,4-oxadiazol-2-yl)benzenesulfonamide] | 22 ± 1 µM | 28 ± 1 µM | 42 ± 1 µM | 51 ± 3 µM |  |  |  | 
NS(=O)(=O)c1cc(-c2nnc(/C=C/c3cccs3)o2)c(Cl)cc1Cl [Compound 29, (E)-2,4-Dichloro-5-(5-(2-(thiophen-2-yl)vinyl)-1,3,4-oxadiazol-2-yl)benzenesulfonamide] | 108 ± 4 µM | 175 ± 12 µM | 245 ± 12 µM |  |  |  |  | 
NS(=O)(=O)c1cc(-c2nnc(/C=C/c3cccc(Cl)c3)o2)c(Cl)cc1SCc1ccccc1 [Compound 10] |  |  |  |  | at the same level as against cancer lines |  |  | 
N#Cc1ccc(/C=C/c2nnc(-c3cc(S(N)(=O)=O)c(SCc4ccccc4)cc3Cl)o2)cc1 [Compound 20, (E)-2-(Benzylthio)-4-chloro-5-(5-(4-cyanostyryl)-1,3,4-oxadiazol-2-yl)benzenesulfonamide] | 9 to 12 µM | 9 to 12 µM | 9 to 12 µM | 20 ± 1 µM |  | 10.3 ± 0.2 µM | 8.9 ± 0.5 µM | 12.2 ± 0.5 µM
NS(=O)(=O)c1cc(-c2nnc(/C=C/c3cccnc3)o2)c(Cl)cc1Cl [Compound 25, (E)-2,4-Dichloro-5-(5-(2-(pyridin-3-yl)vinyl)-1,3,4-oxadiazol-2-yl)benzenesulfonamide] | 220 ± 11 µM | 760 ± 24 µM | 570 ± 17 µM |  |  |  |  | 
NS(=O)(=O)c1cc(-c2nnc(/C=C/c3ccccc3)o2)c(Cl)cc1Cl [Compound 7, (E)-2,4-Dichloro-5-(5-styryl-1,3,4-oxadiazol-2-yl)benzenesulfonamide] | 86 ± 3 µM | 165 ± 5 µM | 455 ± 14 µM |  |  |  |  | 
NS(=O)(=O)c1ccc(-c2nnc(/C=C/c3ccc(C(F)(F)F)cc3)o2)cc1 [Compound 50, (E)-4-(5-(4-(Trifluoromethyl)styryl)-1,3,4-oxadiazol-2-yl)benzenesulfonamide] | 155 ± 7 µM | 280 ± 15 µM | 520 ± 25 µM |  |  |  |  | 

— paper PMC7139731, “Synthesis, Anticancer Evaluation and Structure-Activity Analysis of Novel (E)- 5-(2-Arylvinyl)-1,3,4-oxadiazol-2-yl)benzenesulfonamides” (International Journal of Molecular Sciences, 2020)
